The test concerns Plasmodium berghei. Put plainly: Luciferase/luciferin-expressing antifolate-resistant parasites were used to infect a culture of HepG2 cells that were pre-incubated with compounds. Infected hepatocytes emit light due to the luciferase reaction. Assay results are presented as the percent inhibition of light emission compared to control. […]. Type of test: functional. The note with it: sporozoite; for IC90: read-out: LUCIFERASE INFECTION ASSAY - IC90.

The mark [1] stands for this setting: read-out: LUCIFERASE INFECTION ASSAY - IC50.

The IC50 is the concentration that gives 50% inhibition. As usually defined, the IC90 is the concentration at which the effect reaches the 90% level. For `COc1ccc(C(NS(=O)(=O)c2ccc(-n3ncc(Cl)c(Cl)c3=O)cc2)C(C)C)cc1` (stereo unspecified), the IC90 was 2.38 µM. In addition, under “HEPG2TOX_HILL_SLOPE 9.92, HEPG2TOX_R_SQUARED 0.979, PBLUC_HILL_SLOPE 3.67, PBLUC_R_SQUARED 0.728, read-out: LUCIFERASE INFECTION ASSAY - IC50”, the half-maximal inhibitory concentration (IC50) is 1.31 µM.
Take `CCOC(=O)Cc1nn(Cc2nc(-c3ccc(C(F)(F)F)cc3)cs2)c(=O)c2ccccc12`: the IC90 was greater than 6.97 µM. In addition, under setting [1], the IC50 is greater than 6.97 µM.
Take `Cn1ccnc1SCc1n[nH]c(=O)c2ccccc12`: the IC90 turned out to be 8.93 µM. Moreover, the half-inhibitory concentration (IC50) (HEPG2TOX_HILL_SLOPE 15.9, HEPG2TOX_R_SQUARED 0.771, PBLUC_HILL_SLOPE 3.2, PBLUC_R_SQUARED 0.661, read-out: LUCIFERASE INFECTION ASSAY - IC50) was 4.5 µM.
As to `O=c1c2c(-c3ccccc3)csc2nc2c3ccccc3c(Cl)nn12`, the IC90 was greater than 10 µM. For the same compound, the IC50 under setting [1] is greater than 10 µM.
For the compound `O=C(c1ccco1)N1CCN(c2ncnc3c2[nH]c2ccc(F)cc23)CC1`, the 90% effect concentration (IC90) was greater than 9.03 µM. Further, the IC50 (HEPG2TOX_HILL_SLOPE 1.18, HEPG2TOX_R_SQUARED 0.668, PBLUC_HILL_SLOPE 1.45, PBLUC_R_SQUARED 0.295, read-out: LUCIFERASE INFECTION ASSAY - IC50) was greater than 9.03 µM.
As for `O=c1c2ccccc2c(-c2ccc(F)cc2F)nn1-c1ccccc1`, the IC90 was greater than 9.87 µM. The half-maximal inhibitory concentration (IC50) under setting [1] was greater than 9.87 µM.
Consider `N#Cc1ccc(C=C2C(=O)Nc3ccccc3NC2=O)cc1`, for which the IC90 is greater than 10 µM. For the same compound, under setting [1], the IC50 is greater than 10 µM.
For `NC(=NNC(=S)Nc1ccccc1C(F)(F)F)c1ccccn1`, the IC90 came out at 2.78 µM. The IC50 (FFLUC_HILL_SLOPE 21.9, FFLUC_R_SQUARED 0.597, HEPG2TOX_HILL_SLOPE 0.969, HEPG2TOX_R_SQUARED 0.909, PBLUC_HILL_SLOPE 1.81, PBLUC_R_SQUARED 0.836, read-out: LUCIFERASE INFECTION ASSAY - IC50) was found to be 0.826 µM.
In the case of `O=c1c(-c2ccc([N+](=O)[O-])cc2)c(-c2ccc(Cl)cc2)cc2[nH]c3ccccc3n12`, the 90% effect concentration (IC90) was greater than 10 µM. Also, the half-inhibitory concentration (IC50) under setting [1] was greater than 10 µM.
As to `O=C(Nc1nc2ccccn2c1C(=O)NC1CCCCC1)c1ccccc1`, the IC90 amounted to 3.28 µM. The IC50 (FFLUC_HILL_SLOPE 12.3, FFLUC_R_SQUARED 0.522, HEPG2TOX_HILL_SLOPE 1.9, HEPG2TOX_R_SQUARED 0.962, PBLUC_HILL_SLOPE 15.5, PBLUC_R_SQUARED 0.368, read-out: LUCIFERASE INFECTION ASSAY - IC50) was 2.84 µM.
In the case of `CCOc1ccc(C(C)=O)cc1COC(=O)c1cc(-c2ccccc2)nc2c1c(C)nn2-c1ccccc1`, the IC90 is greater than 10 µM. Moreover, the IC50 under setting [1] was greater than 10 µM.
Regarding `CC(=O)Nc1ccc(-c2cnc3ccc(-c4ccccc4)nn23)cc1`, the concentration for an effect of 90% (IC90) was 3.8 µM. Moreover, the 50% inhibitory concentration (IC50) (HEPG2TOX_HILL_SLOPE 2.97, HEPG2TOX_R_SQUARED 0.938, PBLUC_HILL_SLOPE 2.21, PBLUC_R_SQUARED 0.595, read-out: LUCIFERASE INFECTION ASSAY - IC50) is 1.4 µM.
For the compound `CC1CN(Cc2csc(Nc3ccccc3)n2)CC(C)O1` (stereo unspecified), the IC90 came to 9.23 µM. Moreover, for the setting “PBLUC_HILL_SLOPE 20.5, 3.85, PBLUC_R_SQUARED 0.234, 0.496, read-out: LUCIFERASE INFECTION ASSAY - IC50”, the IC50 was found to be 7.33 µM.
On to `O=C(Nc1nc(C23CC4CC(CC(C4)C2)C3)cs1)C1=COCCO1`, for which the IC90 was greater than 10 µM. Also, the half-maximal inhibitory concentration (IC50) (PBLUC_HILL_SLOPE 3.95, PBLUC_R_SQUARED 0.0619, read-out: LUCIFERASE INFECTION ASSAY - IC50) came out at 7.07 µM.
On to `CCOC(=O)c1sc(N(NC(=O)c2ccccc2Cl)C(=O)c2ccccc2Cl)c2c1CC(C)(C)CC2=O`, for which the IC90 is greater than 5.9 µM. Moreover, the IC50 (HEPG2TOX_HILL_SLOPE 5.11, HEPG2TOX_R_SQUARED 0.645, PBLUC_HILL_SLOPE 3.24, PBLUC_R_SQUARED 0.155, read-out: LUCIFERASE INFECTION ASSAY - IC50) came to 3.1 µM.
In the case of `CNc1nc2cnc(Nc3ccc(OC(F)(F)F)cc3)cc2n1-c1cccc(C(F)(F)F)c1`, the IC90 was greater than 10 µM. Further, the IC50 (PBLUC_HILL_SLOPE 7.78, PBLUC_R_SQUARED 0.568, read-out: LUCIFERASE INFECTION ASSAY - IC50) was found to be 8 µM.
As for `COc1ccc(-c2cnc3cnc(-c4ccc(N5CCN(C)CC5)cc4)cn23)cc1`, the IC90 is greater than 8.26 µM. Moreover, the IC50 (PBLUC_HILL_SLOPE 4.21, PBLUC_R_SQUARED 0.0945, read-out: LUCIFERASE INFECTION ASSAY - IC50) amounted to 6.36 µM.
For `Cc1ccc(-n2c(C)cc(C(=O)CSc3nc(N)cc(N)n3)c2C)cc1C`, the IC90 amounted to 4.39 µM. The IC50 (HEPG2TOX_HILL_SLOPE 0.381, HEPG2TOX_R_SQUARED 0.896, PBLUC_HILL_SLOPE 2.47, PBLUC_R_SQUARED 0.602, read-out: LUCIFERASE INFECTION ASSAY - IC50) was 1.81 µM.
As to `O=C(Nc1cccc(Oc2cnccn2)c1)C(c1ccccc1)c1ccccc1`, the IC90 is greater than 10 µM. The IC50 (PBLUC_HILL_SLOPE 11.4, PBLUC_R_SQUARED 0.171, read-out: LUCIFERASE INFECTION ASSAY - IC50) worked out at 8.47 µM.
Consider `Cn1c(-c2ccccc2)c(/C=N/Nc2ccnc3cc(Cl)ccc23)c2ccccc21`, for which the IC90 is 6.47 µM. Moreover, under “HEPG2TOX_HILL_SLOPE 17.0, 5.95, HEPG2TOX_R_SQUARED 0.687, 0.986, PBLUC_HILL_SLOPE 1.29, PBLUC_R_SQUARED 0.592, read-out: LUCIFERASE INFECTION ASSAY - IC50”, the IC50 amounted to 1.17 µM.
For `O=C(Nc1nc2ccccn2c1C(=O)NC1CCCC1)c1cc(F)ccc1F`, the IC90 came out at 6.63 µM. Also, the IC50 (HEPG2TOX_HILL_SLOPE 2.22, HEPG2TOX_R_SQUARED 0.565, PBLUC_HILL_SLOPE 4.18, PBLUC_R_SQUARED 0.45, read-out: LUCIFERASE INFECTION ASSAY - IC50) was 3.92 µM.
As for `COC(=O)CCSc1nnc(Nc2ccc(OC(F)(F)F)cc2)s1`, the IC90 was greater than 10 µM. Further, under setting [1], the IC50 was greater than 10 µM.
Regarding `CC(C)Cn1c(N)c(C(=O)CSc2nc(=O)c3c4c(sc3[nH]2)CCCC4)c(=O)n(C)c1=O`, the IC90 was greater than 10 µM. In addition, the half-maximal inhibitory concentration (IC50) (HEPG2TOX_HILL_SLOPE 0.911, HEPG2TOX_R_SQUARED 0.885, PBLUC_HILL_SLOPE 2, PBLUC_R_SQUARED 0.249, read-out: LUCIFERASE INFECTION ASSAY - IC50) was determined as 5.58 µM.
Take `COc1ccc(Cl)cc1COC(=O)COc1ccc2c(c1)CCC(=O)N2`: the IC90 was greater than 10 µM. In addition, the IC50 (PBLUC_HILL_SLOPE 0.441, PBLUC_R_SQUARED 0.194, read-out: LUCIFERASE INFECTION ASSAY - IC50) was greater than 10 µM.
In the case of `CN(c1ccccc1)S(=O)(=O)c1ccc(C(=O)N2CCN(Cc3ccc(Cl)s3)CC2)cc1`, the IC90 is greater than 10 µM. Moreover, the IC50 (PBLUC_HILL_SLOPE 1.66, PBLUC_R_SQUARED 0.494, read-out: LUCIFERASE INFECTION ASSAY - IC50) worked out at 8.02 µM.
Turning to `O=C(NCc1cn(-c2ccccc2)nc1-c1ccc(Cl)s1)c1ccccc1C(F)(F)F`, the IC90 was greater than 10 µM. Under “HEPG2TOX_HILL_SLOPE 3.63, HEPG2TOX_R_SQUARED 0.948, PBLUC_HILL_SLOPE 1.32, PBLUC_R_SQUARED 0.654, read-out: LUCIFERASE INFECTION ASSAY - IC50”, the IC50 came out at 2.44 µM.
`CCCn1c(NC(=O)C2CCCCN2S(=O)(=O)c2ccccc2)nc2ccccc21` (stereo unspecified): the IC90 worked out at 7.71 µM. In addition, the IC50 (PBLUC_HILL_SLOPE 7.3, PBLUC_R_SQUARED 0.749, read-out: LUCIFERASE INFECTION ASSAY - IC50) turned out to be 5.71 µM.
`CCN(c1ccccc1)S(=O)(=O)c1ccc(Sc2ccc(C)cc2C)nc1`: the IC90 is greater than 10 µM. Further, the half-inhibitory concentration (IC50) (HEPG2TOX_HILL_SLOPE 0.198, HEPG2TOX_R_SQUARED 0.716, PBLUC_HILL_SLOPE 11.9, PBLUC_R_SQUARED 0.0318, read-out: LUCIFERASE INFECTION ASSAY - IC50) amounted to 9.38 µM.
`COc1ccc(-c2cnc3ccc(NCc4ccc(Cl)c(Cl)c4)nn23)cn1`: the IC90 was 4.73 µM. The concentration for half-maximal inhibition (IC50) under setting [1] is 4.63 µM.
`CC(C)N(CC(=O)Nc1ccc(Cl)cc1C(F)(F)F)C(=O)CNC(c1ccccc1)c1ccccc1`: the IC90 was greater than 10 µM. The IC50 under setting [1] was greater than 10 µM.
On to `CCc1nc(SCC(=O)Nc2nsc(-c3ccc(C(C)(C)C)cc3)n2)c2c3c(sc2n1)CCC3`, for which the IC90 was greater than 10 µM. Further, the IC50 (FFLUC_HILL_SLOPE 7.48, FFLUC_R_SQUARED 0.446, read-out: LUCIFERASE INFECTION ASSAY - IC50) is greater than 10 µM.
In the case of `O=C1C=C/C(=N\Nc2ccccc2C(F)(F)F)c2cccnc21`, the IC90 is 1.31 µM. Under “HEPG2TOX_HILL_SLOPE 0.86, HEPG2TOX_R_SQUARED 0.964, PBLUC_HILL_SLOPE 13.8, PBLUC_R_SQUARED 0.7, read-out: LUCIFERASE INFECTION ASSAY - IC50”, the IC50 amounted to 1.12 µM.
Take `COc1cc(-c2nc3ccc(NC(=O)Nc4cccc(C(C)=O)c4)cn3n2)cc(OC)c1OC`: the IC90 was 1.53 µM. The IC50 (HEPG2TOX_HILL_SLOPE 3.38, HEPG2TOX_R_SQUARED 0.754, PBLUC_HILL_SLOPE 9.64, PBLUC_R_SQUARED 0.711, read-out: LUCIFERASE INFECTION ASSAY - IC50) turned out to be 1.21 µM.
As for `Cn1c[n+](C2=C(NS(=O)(=O)c3ccc([N+](=O)[O-])cc3)C(=O)c3ccccc3C2=O)c2ccccc21`, the IC90 is 5.03 µM. Moreover, the IC50 under setting [1] came to 2.53 µM.
Regarding `COc1ccc(Nc2nccn3c(-c4cccc(NC(C)=O)c4)cnc23)cc1`, the IC90 is 0.122 µM.
With `O=C(Nc1cccc(C(F)(F)F)c1)Nc1ccc2c(c1)no[n+]2[O-]`, the IC90 came out at 1.2 µM. Where the note is “HEPG2TOX_HILL_SLOPE 9.23, HEPG2TOX_R_SQUARED 0.804, PBLUC_HILL_SLOPE 15.5, PBLUC_R_SQUARED 0.688, read-out: LUCIFERASE INFECTION ASSAY - IC50”, the IC50 was determined as 1.04 µM.
